Nine molecules from US20210253598A1, “ARYL ANNULATED MACROCYCLIC INDOLE DERIVATIVES” (priority 2017, published 2021) can be followed below.

Assay [1] concerns SUDHL5. Put plainly: Induction of caspase-3/7 activity in SUDHL5 cells (Assay 4). The class given is cell-based. The note with it: Homo sapiens, SU-DHL-5, 3 h. Put shortly: (§1)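 DLBCL lines SUDHL5 and SUDHL10 were treated with compound for 3 h at 37 °C. Caspase-3/7 activity was then read by Caspase-Glo 3/7 luminescence after 1 h at 37 °C. Medium-only background was subtracted and values were normalized to the mean of DMSO-treated cells.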

A further assay deals with A2780. Put plainly: Anti-proliferative effect in A2780 cells, CellTiter-Glo (Assay 7). In kind it is cell-based. Conditions: Homo sapiens, A2780, 72 h, several values per example. The procedure: (§2) Assessment of the Anti-Proliferative Effect of Compounds in Different Cell Lines
(§3) The impact of compounds on the proliferation of different cell lines was assessed using the CellTiter-Glo® Luminescent Cell Viability reagent from Promega (G7573).
(§4) In parallel, cells were plated in a reference (day 0) plate for time zero determination. Cells were incubated in a humidified incubator at 37° C. overnight.
(§5) Rim wells were excluded. The cells were incubated for 72 hours in a humidified incubator at 37° C. The day 0 plate was measured by adding 30 μL/well of CTG solution (CellTiter-Glo® Luminescent Cell Viability reagent, Promega G7573) to time zero wells in the reference plate followed by a 10 minutes incubation and luminescence reading at 0.1 ms. using the PHERAstar FS microplate reader (BMG Labtech).
(§6) After 72 hours incubation, the treated plates were measured in the same way as the day 0 plate mentioned above. The Bella DRC Master Sheet was used to calculate IC50s, with CI=day 0 values and C0=DMSO control values.
A general note: Cellular ATP, detected with luciferase, serves as a proxy for viable cell number.

The test system of assay [2] is SUDHL10. Put plainly: Induction of cytotoxicity in SUDHL10 cells, CellTiter-Glo (Assay 6). In kind it is cell-based. Conditions: Homo sapiens, SU-DHL10, 5 h, SUDHL10, 5 hours incubation, median, read-out: Cytotox SUDHL10 [M] (median). In a few lines:
(§7)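 Viability of treated lymphoma cells is measured by luminescence with CellTiter-Glo reagent, incubated 15 minutes at room temperature. Compound exposure lasts 5 hours at 37° C.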

In a further assay the test system is MV-4-11. Put plainly: Anti-proliferative effect in MV-4-11 cells, CellTiter-Glo (Assay 7). In kind it is cell-based. The note with it: Homo sapiens, MV4-11, 72 h, several values per example. The procedure: as §2, §3, §4, §5, §6
The subject of assay [3] is SUDHL5. Put plainly: Induction of cytotoxicity in SUDHL5 cells, CellTiter-Glo (Assay 6). Conditions: Homo sapiens, SU-DHL-5, 5 h, SUDHL5, 5 hours incubation, median, read-out: Cytotox SUDHL5 [M] (median). The class given is cell-based. Put shortly:
as §7

Assay [4] relates to SUDHL10. Put plainly: Induction of caspase-3/7 activity in SUDHL10 cells (Assay 4). In kind it is cell-based. The note with it: Homo sapiens, SU-DHL10, 3 h. Put shortly:
as §1

The subject of assay [5] is SUDHL5. Put plainly: Anti-proliferative effect in SUDHL5 cells, CellTiter-Glo (Assay 7). The class given is cell-based. The note with it: Homo sapiens, SU-DHL-5, 72 h. As to the method:
as §2, §3, §4, §5, §6

The target of the next assay is MCL-1 (Homo sapiens, UniProt Q07820, K194A/K197A/R201A). Put plainly: Protein-protein interaction assay MCL-1/Noxa BH3 peptide, TR-FRET (MCL-1 assay, Assay 1). The class given is binding. Conditions: MCL-1 Assay [M] (median), MBP-MCL-1 / Noxa BH3 peptide. In a few lines:
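Human MBP-fused MCL-1 (aa 173-321; 1 nM final) was pre-incubated 10 min at 22 °C with compound in pH 7 Tris buffer containing NaCl, KF, Tween-20, DTT and BGG. Displacement of biotinylated Noxa BH3 peptide was read by TR-FRET (anti-MBP-Eu cryptate/streptavidin-XL665) after 1 h at 22 °C plus overnight at 4 °C. IC50 came from four-parameter fits against DMSO controls.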
For orientation: Time-resolved FRET reads energy transfer from a long-lived donor to a nearby acceptor.

[6] abbreviates: SUDHL5, 3 hours treatment, Caspase-Glo 3/7, median, read-out: Caspase SUDHL5 [M] (median).
Where [7] appears, read: A2780, 72 hours incubation, CellTiter-Glo, read-out: Antiproli A2780.
[8] abbreviates: MV-4-11, 72 hours incubation, CellTiter-Glo, read-out: Antiproli MV-4-11.
The mark [9] stands for this setting: SUDHL10, 3 hours treatment, Caspase-Glo 3/7, median, read-out: Caspase SUDHL10 [M] (median).
Where [10] appears, read: SUDHL5, 72 hours incubation, CellTiter-Glo, median, read-out: Antiproli SUDHL5 [M] (median).

Structures can show the parent of a compound that is named as a salt. Where two headings read alike, the source gives them in different places.

MCL-1, sequence (Q07820 173-321 K194A/K197A/R201A, looked up): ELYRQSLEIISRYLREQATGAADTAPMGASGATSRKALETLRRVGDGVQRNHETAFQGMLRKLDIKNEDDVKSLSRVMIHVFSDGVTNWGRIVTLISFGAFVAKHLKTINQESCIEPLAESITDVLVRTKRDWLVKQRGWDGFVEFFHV

Take `COc1cc(CNC(=O)N2Cc3ccccc3Cn3c(C(=O)O)c(CCCOc4cccc5ccccc45)c4cccc(c43)-c3c(nn(C)c3C)C2)cc(OC)c1OC` (racemic) [Example 20, (rac)-4,5-Dimethyl-17-[3-(naphthalen-1-yloxy)propyl]-8-[(3,4,5-trimethoxybenzyl)carbamoyl]-7,8,9,14-tetrahydro-5H-indolo[1,7-bc]pyrazolo[4,3-e][2,8]benzodiazacycloundecine-16-carboxylic Acid]: the EC50 in the assay on SUDHL5 [1] (setting [6]) and in the assay with SUDHL10 [4] (setting [9]) was > 3.3e-05 M in each case. The IC50 in the assay on A2780 (setting [7]) is 1.37e-05 M; in the assay with SUDHL10 [2] it was > 3.3e-05 M; with MV-4-11 (setting [8]), 1.08e-05 M; in the assay on SUDHL5 [3], > 3.3e-05 M; with SUDHL5 [5] (setting [10]), 1.2e-05 M; on MCL-1, 1.8e-07 M.

For `Cc1c2c(nn1C)COCc1ccccc1Cn1c(C(=O)O)c(CCCOc3cccc4ccccc34)c3ccc(Cl)c-2c31` (racemic) [Example 36, (rac)-3-Chloro-4,5-dimethyl-17-[3-(naphthalen-1-yloxy)propyl]-5,7,9,14-tetrahydroindolo[7,1-fg]pyrazolo[3,4-d][2,8]benzoxazacycloundecine-16-carboxylic Acid], the figures for the EC50 with SUDHL5 [1] (setting [6]) and with SUDHL10 [4] (setting [9]) were 2.4e-06 M and 5.5e-06 M, respectively. Besides, the IC50 is 2.31e-05 M with A2780 (setting [7]); 4.9e-06 M with SUDHL10 [2]; 1.38e-06 M in the assay with MV-4-11 (setting [8]); 3.8e-06 M in the assay with SUDHL5 [3]; 3.6e-06 M with SUDHL5 [5] (setting [10]); 3.2e-09 M at MCL-1.

As to `Cc1c2c(nn1C)CN(S(=O)(=O)CCN1CCOCC1)Cc1ccccc1Cn1c(C(=O)O)c(CCCOc3cccc4ccccc34)c3cccc-2c31` (racemic) [Example 30, (rac)-4,5-Dimethyl-8-{[2-(morpholin-4-yl)ethyl]sulfonyl}-17-[3-(naphthalen-1-yloxy)propyl]-7,8,9,14-tetrahydro-5H-indolo[1,7-bc]pyrazolo[4,3-e][2,8]benzodiazacycloundecine-16-carboxylic Acid], the EC50 in the assay with SUDHL5 [1] (setting [6]) is 8.5e-06 M; in the assay with SUDHL10 [4] (setting [9]) it was > 3.3e-05 M. In addition, the IC50 in the assay on A2780 (setting [7]) came out at 1.71e-05 M; in the assay with SUDHL10 [2], 2.9e-05 M; with MV-4-11 (setting [8]) it was 7.85e-06 M; with SUDHL5 [3], 8.6e-06 M; in the assay with SUDHL5 [5] (setting [10]), 4.6e-06 M; against MCL-1, 3.7e-08 M.

`Cc1c2c(nn1C)CN(C(=O)CC1CCOCC1)Cc1ccccc1Cn1c(C(=O)O)c(CCCOc3cccc4ccccc34)c3cccc-2c31` (racemic) [Example 21, (rac)-4,5-Dimethyl-17-[3-(naphthalen-1-yloxy)propyl]-8-(tetrahydro-2H-pyran-4-ylacetyl)-7,8,9,14-tetrahydro-5H-indolo[1,7-bc]pyrazolo[4,3-e][2,8]benzodiazacycloundecine-16-carboxylic Acid]: the EC50 was 2e-05 M in the assay with SUDHL5 [1] (setting [6]) and > 3.3e-05 M with SUDHL10 [4] (setting [9]). Also, the IC50 with A2780 (setting [7]) was 1.19e-05 M; in the assay with SUDHL10 [2] it was > 3.3e-05 M; in the assay with MV-4-11 (setting [8]), 8.33e-06 M; with SUDHL5 [3] it was 1.3e-05 M; in the assay with SUDHL5 [5] (setting [10]), 1.1e-05 M; against MCL-1, 3.5e-08 M.

On to `CCc1c2c(nn1C)COCc1ccccc1Cn1c(C(=O)O)c(CCCOC3CCCc4ccccc43)c3ccc(F)c-2c31` (racemic) [Example 92, (rac)-14-Ethyl-15-fluoro-13-methyl-1-(3-((1,2,3,4-tetrahydronaphthalen-1-yl)oxy)propyl)-4,9,11,13-tetrahydrobenzo[3,4]pyrazolo[4′,3′:9,10][1]oxa[6]azacycloundecino[8,7,6-hi]indole-2-carboxylic Acid], for which the EC50 in the assay on SUDHL5 [1] (setting [6]) is 1.5e-05 M; in the assay with SUDHL10 [4] (setting [9]), > 3.3e-05 M. For the same molecule, the IC50 in the assay on A2780 (setting [7]) is > 3.3e-05 M; with SUDHL10 [2], > 3.3e-05 M; with MV-4-11 (setting [8]), 6.15e-06 M; in the assay with SUDHL5 [3], 8.1e-06 M; in the assay on SUDHL5 [5] (setting [10]) it was > 3.3e-05 M; against MCL-1, 1.8e-08 M.

Consider `Cc1c2c(nn1C)COCc1cccnc1Cn1c(C(=O)O)c(CCCOc3cccc4ccccc34)c3ccc(Cl)c-2c31` (racemic) [Example 39, (rac)-3-Chloro-4,5-dimethyl-17-[3-(naphthalen-1-yloxy)propyl]-5,7,9,14-tetrahydropyrazolo-[4′,3′:9,10]pyrido[3′,2′:3,4][1,6]oxazacycloundecino[8,7,6-hi]indole-16-carboxylic Acid], for which the EC50 in the assay with SUDHL5 [1] (setting [6]) worked out at 3.7e-06 M; in the assay with SUDHL10 [4] (setting [9]), 5.7e-06 M. Besides, the IC50 in the assay with A2780 (setting [7]) is > 3.3e-05 M; in the assay on SUDHL10 [2], 6.7e-06 M; with MV-4-11 (setting [8]), 1.56e-05 M; with SUDHL5 [3], 3.3e-06 M; with SUDHL5 [5] (setting [10]), 2.4e-06 M; against MCL-1, 1.6e-09 M.

`Cc1c2c(nn1C)COCc1ncccc1Cn1c(C(=O)O)c(CCCOc3cccc4ccccc34)c3ccc(Cl)c-2c31` (single isomer, unassigned; enantiomer 2) [Example 44, 3-Chloro-4,5-dimethyl-17-[3-(naphthalen-1-yloxy)propyl]-5,7,9,14-tetrahydropyrazolo-[4′,3′:9,10]pyrido[2′,3′:3,4][1,6]oxazacycloundecino[8,7,6-hi]indole-16-carboxylic acid-N-ethylethanamine Salt (Enantiomer 2)]: the EC50 with SUDHL5 [1] (read-out: Caspase SUDHL5 [M] (median), SUDHL5, 3 hours treatment, Caspase-Glo 3/7) is 7.8e-06 M; in the assay with SUDHL10 [4] (read-out: Caspase SUDHL10 [M] (median), SUDHL10, 3 hours treatment, Caspase-Glo 3/7) it was 1.5e-05 M. The IC50 in the assay with A2780 (read-out: Antiproli A2780 [M], A2780, 72 hours incubation, CellTiter-Glo) came to 2.37e-05 M; with SUDHL10 [2], 1.5e-05 M; with MV-4-11 (read-out: Antiproli MV-4-11 [M], MV-4-11, 72 hours incubation, CellTiter-Glo), 1.54e-05 M; in the assay with SUDHL5 [3] it was 7.9e-06 M; in the assay with SUDHL5 [5] (read-out: Antiproli SUDHL5 [M] (median), SUDHL5, 72 hours incubation, CellTiter-Glo), 5.7e-06 M; at MCL-1 it was 5.2e-09 M.

As to `Cc1c2c(nn1C)CN(C)Cc1ccccc1Cn1c(C(=O)O)c(CCCOc3cccc4ccccc34)c3cccc-2c31` (racemic) [Example 14, (rac)-4,5,8-Trimethyl-17-[3-(naphthalen-1-yloxy)propyl]-7,8,9,14-tetrahydro-5H-indolo[1,7-bc]pyrazolo[4,3-e][2,8]benzodiazacycloundecine-16-carboxylic Acid], the values for the EC50 in the assay on SUDHL5 [1] (setting [6]) and in the assay with SUDHL10 [4] (setting [9]) were 2.7e-06 M and 7.6e-06 M, respectively. The IC50 in the assay on A2780 (setting [7]) amounted to 1.75e-05 M; with SUDHL10 [2] it was 7e-06 M; in the assay on MV-4-11 (setting [8]) it was 6.41e-06 M; with SUDHL5 [3] it was 3e-06 M; in the assay on SUDHL5 [5] (setting [10]), 3.4e-06 M; against MCL-1, 5.2e-09 M.

For `Cc1nn(C)c2c1-c1c(F)ccc3c(CCCOc4ccc(F)c5ccccc45)c(C(=O)O)n(c13)Cc1ccccc1COC2` (racemic) [Example 82, (rac)-15-Fluoro-1-(3-((4-fluoronaphthalen-1-yl)oxy)propyl)-12,14-dimethyl-4,9,11,12-tetrahydrobenzo[3,4]pyrazolo[4′,3′:9,10][1]oxa[6]azacycloundecino[8,7,6-hi]indole-2-carboxylic Acid], the EC50 with SUDHL5 [1] (setting [6]) is 2.2e-05 M; in the assay on SUDHL10 [4] (setting [9]) it was > 3.3e-05 M. Moreover, the IC50 was 2.85e-05 M with A2780 (setting [7]); > 3.3e-05 M in the assay on SUDHL10 [2]; 1.45e-05 M with MV-4-11 (setting [8]); 2.4e-05 M in the assay on SUDHL5 [3]; 1e-05 M with SUDHL5 [5] (setting [10]); 1.2e-08 M against MCL-1.
